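Five compound concentrations were applied to cells in 96-well plates for 48 hours; endpoints were derived by simple linear interpolation of the resulting dose-response curve. At the GI50, growth is halved. TGI: total growth inhibition.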
Key:
Test in all cases: inhibition of tumour cell growth, NCI panel, 48 h
DU-145 prostate = tested on: DU-145 prostate
UO-31 renal = tested on: UO-31 renal
EKVX NSCLC = tested on: EKVX NSCLC
OVCAR-8 ovarian = tested on: OVCAR-8 ovarian
M14 melanoma = tested on: M14 melanoma
SK-MEL-28 melanoma = tested on: SK-MEL-28 melanoma
MDA-MB-435 = tested on: MDA-MB-435
BT-549 breast = tested on: BT-549 breast
KM12 colon = tested on: KM12 colon
ACHN renal = tested on: ACHN renal
HCC-2998 colon = tested on: HCC-2998 colon
CCRF-CEM leukemia = tested on: CCRF-CEM leukemia
NCI-H226 lung = tested on: NCI-H226 lung
MDA-MB-231 breast = tested on: MDA-MB-231 breast
NCI/ADR-RES ovarian = tested on: NCI/ADR-RES ovarian
NCI-H522 lung = tested on: NCI-H522 lung
SK-OV-3 ovarian = tested on: SK-OV-3 ovarian
OVCAR-5 ovarian = tested on: OVCAR-5 ovarian
MALME-3M melanoma = tested on: MALME-3M melanoma
SK-MEL-2 melanoma = tested on: SK-MEL-2 melanoma
HOP-92 NSCLC = tested on: HOP-92 NSCLC
HOP-62 NSCLC = tested on: HOP-62 NSCLC
SF-295 CNS = tested on: SF-295 CNS
PC-3 prostate = tested on: PC-3 prostate
RPMI-8226 leukemia = tested on: RPMI-8226 leukemia
HS 578T breast = tested on: HS 578T breast
SF-539 CNS = tested on: SF-539 CNS
NCI-H23 lung = tested on: NCI-H23 lung
SK-MEL-5 melanoma = tested on: SK-MEL-5 melanoma
OVCAR-3 ovarian = tested on: OVCAR-3 ovarian
RXF 393 renal = tested on: RXF 393 renal
SNB-75 CNS = tested on: SNB-75 CNS
CAKI-1 renal = tested on: CAKI-1 renal
UACC-62 melanoma = tested on: UACC-62 melanoma
T-47D breast = tested on: T-47D breast
NCI-H460 lung = tested on: NCI-H460 lung

N=C(N)c1ccc(-c2ccc(-c3ccc(Cl)cc3Cl)s2)nc1
GI50 (DU-145 prostate): 1850 nM
TGI (DU-145 prostate): 3270 nM
GI50 (UO-31 renal): 1570 nM
TGI (UO-31 renal): 2930 nM
GI50 (EKVX NSCLC): 2470 nM
TGI (EKVX NSCLC): 6560 nM
GI50 (OVCAR-8 ovarian): 2510 nM
TGI (OVCAR-8 ovarian): 6410 nM
GI50 (M14 melanoma): 1850 nM
TGI (M14 melanoma): 3630 nM
GI50 (SK-MEL-28 melanoma): 1760 nM
TGI (SK-MEL-28 melanoma): 3280 nM
GI50 (MDA-MB-435): 1730 nM
TGI (MDA-MB-435): 3110 nM
GI50 (BT-549 breast): 6530 nM
TGI (BT-549 breast): 28600 nM
GI50 (KM12 colon): 1760 nM
TGI (KM12 colon): 3190 nM
GI50 (ACHN renal): 1770 nM
TGI (ACHN renal): 3160 nM
GI50 (HCC-2998 colon): 1740 nM
TGI (HCC-2998 colon): 3170 nM
GI50 (CCRF-CEM leukemia): 2270 nM
TGI (CCRF-CEM leukemia): 5010 nM
GI50 (NCI-H226 lung): 5020 nM
TGI (NCI-H226 lung): 28400 nM
GI50 (MDA-MB-231 breast): 1680 nM
TGI (MDA-MB-231 breast): 3260 nM
GI50 (NCI/ADR-RES ovarian): 1880 nM
TGI (NCI/ADR-RES ovarian): 3640 nM
GI50 (NCI-H522 lung): 2190 nM
TGI (NCI-H522 lung): 4880 nM
GI50 (SK-OV-3 ovarian): 8000 nM
TGI (SK-OV-3 ovarian): 25600 nM
GI50 (OVCAR-5 ovarian): 1710 nM
TGI (OVCAR-5 ovarian): 3210 nM
GI50 (MALME-3M melanoma): 1710 nM
TGI (MALME-3M melanoma): 3230 nM
GI50 (SK-MEL-2 melanoma): 2790 nM
TGI (SK-MEL-2 melanoma): 7320 nM
GI50 (HOP-92 NSCLC): 1760 nM
TGI (HOP-92 NSCLC): 4000 nM
GI50 (HOP-62 NSCLC): 1890 nM
TGI (HOP-62 NSCLC): 3920 nM
GI50 (SF-295 CNS): 1740 nM
TGI (SF-295 CNS): 3240 nM
GI50 (PC-3 prostate): 1860 nM
TGI (PC-3 prostate): 3670 nM
GI50 (RPMI-8226 leukemia): 2320 nM
TGI (RPMI-8226 leukemia): 5420 nM
GI50 (HS 578T breast): 2150 nM
TGI (HS 578T breast): 4880 nM
GI50 (SF-539 CNS): 1660 nM
TGI (SF-539 CNS): 3060 nM
GI50 (NCI-H23 lung): 1650 nM
TGI (NCI-H23 lung): 3190 nM
GI50 (SK-MEL-5 melanoma): 1770 nM
TGI (SK-MEL-5 melanoma): 3240 nM
GI50 (OVCAR-3 ovarian): 1830 nM
TGI (OVCAR-3 ovarian): 3350 nM
GI50 (RXF 393 renal): 1670 nM
TGI (RXF 393 renal): 3060 nM
GI50 (SNB-75 CNS): 1430 nM
TGI (SNB-75 CNS): 2830 nM
GI50 (CAKI-1 renal): 1710 nM
TGI (CAKI-1 renal): 3100 nM
GI50 (UACC-62 melanoma): 1900 nM
TGI (UACC-62 melanoma): 3650 nM
GI50 (T-47D breast): 2210 nM
TGI (T-47D breast): 4960 nM

C=C(C)[C@@H]1CC[C@]2(C(=O)OCCOCCOCC[P+](c3ccccc3)(c3ccccc3)c3ccccc3)CC[C@]3(C)[C@H](CC[C@@H]4[C@@]5(C)CC[C@H](C)C(C)(C)[C@@H]5CC[C@]43C)[C@@H]12
GI50 (NCI-H460 lung): 38.3 nM
TGI (NCI-H460 lung): > 100000 nM
GI50 (OVCAR-8 ovarian): 43.1 nM
TGI (OVCAR-8 ovarian): > 100000 nM
GI50 (HOP-62 NSCLC): 38.4 nM
TGI (HOP-62 NSCLC): 614 nM

From PubChem BioAssay (NCI)
